Test results reported in patent publication US11051510B2, “Asymmetric formales and acetales as adjuvants for crop protection” (BASF SE, priority 2014, dated 2021).

Tested on: Puccinia recondita
Assay: Greenhouse test on wheat infected with Puccinia recondita at full and reduced dose rate (Example 12)
Format: in vivo, Puccinia recondita on wheat (species "Kanzler")
Settings: for Infected leaf area at 25% dose rate: 2.5 g/ha pesticide (epoxiconazole) and 5 g/ha adjuvant; for Infected leaf area at 100% dose rate: 10 g/ha pesticide (epoxiconazole) and 20 g/ha adjuvant
Experimental: The biological activity was assessed in a greenhouse on wheat (species “Kanzler”), which was infected with Puccinia recondita at two leafs stage and incubated for three days at high humidity. The plants were sprayed (spray volume 200 l/ha) with a composition comprising 50 ppm (10 g/ha) epoxiconazole and 100 ppm (20 g/ha) of the respective adjuvant samples from Example 1-9. In the comparative example no adjuvant was added. The plants were further cultivated for ten days at 20-24° C. and 60-90% relative humidity. Finally, the percentage of the infected leaf area was visually inspected. Each value was based on three replicates.
The biological activity was assessed in a greenhouse as described in Example 11 with a dose rate of 10 g/ha pesticide and 20 g/ha adjuvant (“100%” in Table 4) and a reduced dose rate of 2.5 g/ha pesticide and 5 g/ha adjuvant (“25%” in Table 4). In this test the adjuvants from Example 1 (formula A), Example 2 (formula B) and as comparative adjuvant butyl endcapped ethoxylated (5EO) n-dodecanol (formula C) were compared. All three compounds are butyl endcapped. Formula A and C have the same degree of ethoxylation of five ethylene oxide (EO) units. Formula B (only 3 EO) and C have a similar overall molecule weight. n-C12-18—[O—CH2—CH2]5—O—CH2—O—CH2—CH2—O—Bu (A) n-C12-18—[O—CH2—CH2]3—O—CH2—O—CH2—CH2—O—Bu (B) n-C12[O—CH2—CH2]5—Bu (C)

Row | Substance | Infected leaf area at 25% dose rate | Infected leaf area at 100% dose rate
1 | butyl endcapped ethoxylated (5EO) n-dodecanol [(C), reference compound] | 38% | 8%
2 | n-C12-18—[O—CH2—CH2]3—O—CH2—O—CH2—CH2—O—Bu [(B)] | 13% | 6%
3 | n-C12-18—[O—CH2—CH2]5—O—CH2—O—CH2—CH2—O—Bu [(A)] | 23% | 7%
